Assay results published in ChEMBL document CHEMBL5634087, “Novel 5-aminopyrazoles endowed with anti-angiogenetic properties: Design, synthesis and biological evaluation” (Eur J Med Chem, 2023).
The source made the active and inactive calls. No cut-off for these calls is given here.

What was measured:
[1] = biological target: RAC-alpha serine/threonine-protein kinase (Homo sapiens) (UniProt P31749); experiment: Inhibition of AKT phosphorylation in serum starved bFGF stimulated HFF cells assessed as residual activity at 20 uM preincubated for 10 mins followed by bFGF addition and measured after 20 mins by Western blotting analysis relative to control; assay type: cell-based; details: time 30.0 min
[2] = biological target: RAC-alpha serine/threonine-protein kinase (Homo sapiens) (UniProt P31749); experiment: Inhibition of AKT phosphorylation in serum starved VEGF stimulated HUVEC cells at 20 uM preincubated for 10 mins followed by VEGF addition and measured after 20 mins by Western blotting analysis relative to control; assay type: cell-based; details: time 30.0 min
HFF [3] = experiment: Antiangiogenic activity in confluent HFF cells assessed as relative migration rate at 20 uM incubated for 24 hrs by Hoechst 33342 staining based wound healing assay relative to control; assay type: functional, Homo sapiens
HFF [4] = experiment: Antiangiogenic activity in confluent HFF cells assessed as relative migration rate at 20 uM incubated for 48 hrs by Hoechst 33342 staining based wound healing assay relative to control; assay type: functional, Homo sapiens
HUVEC [5] = experiment: Antiangiogenic activity in confluent VEGF stimulated HUVEC cells assessed as inhibition of cell migration at 20 uM incubated for 24 to 48 hrs by Hoechst 33342 staining based wound healing assay; assay type: functional; details: Homo sapiens, time 24-48 hrs
HUVEC [6] = experiment: Antiangiogenic activity in confluent VEGF stimulated HUVEC cells assessed as relative cell migration rate at 20 uM incubated for 24 hrs by Hoechst 33342 staining based wound healing assay relative to control; assay type: functional, Homo sapiens
SK-MEL-28 = experiment: Antiproliferative activity against human SK-MEL-28 cells assessed as growth rate at 10 uM incubated for 48 hrs by MTT assay relative to control; assay type: functional; details: read-out: Activity
SK-OV-3 = experiment: Antiproliferative activity against human SK-OV-3 cells assessed as growth rate at 10 uM incubated for 48 hrs by MTT assay relative to control; assay type: functional; details: read-out: Activity
MCF7 = experiment: Antiproliferative activity against human MCF7 cells assessed as growth rate at 10 uM incubated for 48 hrs by MTT assay relative to control; assay type: functional; details: read-out: Activity
A549 = experiment: Antiproliferative activity against human A549 cells assessed as growth rate at 10 uM incubated for 48 hrs by MTT assay relative to control; assay type: functional; details: read-out: Activity
SK-BR-3 = experiment: Antiproliferative activity against human SK-BR-3 cells assessed as growth rate at 10 uM incubated for 48 hrs by MTT assay relative to control; assay type: functional; details: read-out: Activity
HeLa = experiment: Antiproliferative activity against human HeLa cells assessed as growth rate at 10 uM incubated for 48 hrs by MTT assay relative to control; assay type: functional; details: read-out: Activity
HepG2 = experiment: Antiproliferative activity against human HepG2 cells assessed as growth rate at 10 uM incubated for 48 hrs by MTT assay relative to control; assay type: functional; details: read-out: Activity
MDA-MB-231 = experiment: Antiproliferative activity against human MDA-MB-231 cells assessed as growth rate at 10 uM incubated for 48 hrs by MTT assay relative to control; assay type: functional; details: read-out: Activity
[7] = Cytotoxicity against human GM06114 cells assessed as growth rate at 10 uM incubated for 48 hrs by MTT assay relative to control; assay type: toxicity, cell-based; details: gm06114, 48 h
[8] = biological target: RAC-alpha serine/threonine-protein kinase (Homo sapiens) (UniProt P31749); experiment: Inhibition of AKT phosphorylation in serum starved bFGF stimulated HFF cells at 20 uM preincubated for 10 mins followed by bFGF addition and measured after 20 mins by Western blotting analysis; assay type: cell-based; details: time 30.0 min
[9] = biological target: Mitogen-activated protein kinase; ERK1/ERK2 (Homo sapiens) (UniProt P27361+P28482); experiment: Inhibition of ERK1/2 phosphorylation in serum starved bFGF stimulated HFF cells assessed as residual phosphorylated ERK1/2 level at 20 uM preincubated for 10 mins followed by bFGF addition and measured after 20 mins by Western blotting analysis relative to control; assay type: cell-based; details: time 30.0 min
HFF [10] = experiment: Antiangiogenic activity in confluent HFF cells assessed as inhibition of cell migration at 20 uM incubated for 24 to 48 hrs by Hoechst 33342 staining based wound healing assay; assay type: functional; details: Homo sapiens, time 24-48 hrs
HUVEC [11] = experiment: Antiangiogenic activity in confluent VEGF stimulated HUVEC cells assessed as inhibition of cell migration at 20 uM incubated for 48 hrs by Hoechst 33342 staining based wound healing assay; assay type: functional; details: Homo sapiens
HFF [12] = experiment: Antiangiogenic activity in confluent HFF cells assessed as inhibition of cell migration at 20 uM incubated for 24 to 48 hrs by Hoechst 33342 staining based wound healing assay relative to control; assay type: functional, Homo sapiens; set-up: scale not given: the % may be the effect or the level left; details: time 24-48 hrs
[13] = biological target: RAC-alpha serine/threonine-protein kinase (Homo sapiens) (UniProt P31749); experiment: Inhibition of AKT phosphorylation in serum starved VEGF stimulated HUVEC cells at 20 uM preincubated for 10 mins followed by VEGF addition and measured after 20 mins by Western blotting analysis; assay type: cell-based; details: time 30.0 min
HUVEC [14] = experiment: Antiangiogenic activity in confluent VEGF stimulated HUVEC cells assessed as relative cell migration rate at 20 uM incubated for 48 hrs by Hoechst 33342 staining based wound healing assay relative to control; assay type: functional, Homo sapiens
HFF [15] = experiment: Antiangiogenic activity in confluent HFF cells assessed as relative migration rate at 1 uM incubated for 24 hrs by Hoechst 33342 staining based wound healing assay relative to control; assay type: functional, Homo sapiens
HFF [16] = experiment: Antiangiogenic activity in confluent HFF cells assessed as relative migration rate at 1 uM incubated for 48 hrs by Hoechst 33342 staining based wound healing assay relative to control; assay type: functional, Homo sapiens

Mitogen-activated protein kinase; ERK1/ERK2 (Homo sapiens), sequence (P27361 whole entry, looked up): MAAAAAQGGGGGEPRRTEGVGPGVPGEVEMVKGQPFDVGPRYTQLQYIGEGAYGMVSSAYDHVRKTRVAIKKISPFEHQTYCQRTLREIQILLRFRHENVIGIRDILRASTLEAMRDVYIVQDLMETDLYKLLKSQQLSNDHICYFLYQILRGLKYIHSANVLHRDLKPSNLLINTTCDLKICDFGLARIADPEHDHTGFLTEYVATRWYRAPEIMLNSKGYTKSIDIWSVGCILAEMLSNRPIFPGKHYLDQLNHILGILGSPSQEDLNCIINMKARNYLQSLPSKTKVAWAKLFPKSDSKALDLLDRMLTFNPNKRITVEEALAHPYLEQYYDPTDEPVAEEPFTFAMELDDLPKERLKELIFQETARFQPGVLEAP
Mitogen-activated protein kinase; ERK1/ERK2 (Homo sapiens), sequence (P28482 whole entry, looked up): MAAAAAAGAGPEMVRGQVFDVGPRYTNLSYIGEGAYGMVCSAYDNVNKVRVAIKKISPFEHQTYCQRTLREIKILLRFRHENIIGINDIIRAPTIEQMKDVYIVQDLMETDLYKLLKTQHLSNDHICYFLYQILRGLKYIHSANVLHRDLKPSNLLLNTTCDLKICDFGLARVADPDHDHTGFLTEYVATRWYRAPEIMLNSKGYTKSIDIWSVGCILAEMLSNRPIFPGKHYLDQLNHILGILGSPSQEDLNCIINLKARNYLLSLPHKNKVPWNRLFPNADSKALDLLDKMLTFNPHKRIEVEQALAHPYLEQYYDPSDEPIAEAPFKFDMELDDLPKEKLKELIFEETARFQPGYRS
RAC-alpha serine/threonine-protein kinase (Homo sapiens), sequence (P31749 whole entry): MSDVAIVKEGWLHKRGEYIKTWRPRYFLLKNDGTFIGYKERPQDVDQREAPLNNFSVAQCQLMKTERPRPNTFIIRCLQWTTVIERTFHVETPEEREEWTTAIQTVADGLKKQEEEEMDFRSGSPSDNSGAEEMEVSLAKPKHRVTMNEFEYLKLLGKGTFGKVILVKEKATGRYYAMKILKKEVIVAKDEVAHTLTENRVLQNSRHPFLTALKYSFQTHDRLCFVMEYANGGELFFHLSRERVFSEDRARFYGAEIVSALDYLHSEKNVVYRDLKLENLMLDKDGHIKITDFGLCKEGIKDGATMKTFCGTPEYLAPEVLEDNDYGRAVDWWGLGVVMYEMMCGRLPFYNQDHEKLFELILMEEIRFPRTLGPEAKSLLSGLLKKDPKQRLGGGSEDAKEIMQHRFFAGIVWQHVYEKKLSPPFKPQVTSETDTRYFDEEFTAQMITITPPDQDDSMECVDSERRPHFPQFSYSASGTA

SMILES	Activity [1]	inhibition [2]	Activity (HFF [3])	Activity (HFF [4])	Activity (HUVEC [5])	growth at 10 µM (SK-MEL-28)	growth at 10 µM (SK-OV-3)	growth at 10 µM (MCF7)	growth at 10 µM (A549)	growth at 10 µM (SK-BR-3)	growth at 10 µM (HeLa)	growth at 10 µM (HepG2)	growth at 10 µM (MDA-MB-231)	Activity [7]	inhibition [8]	Activity [9]	Activity (HFF [10])	other results
CCCC(O)Cn1ncc(C(=O)OCC)c1NC(=O)Nc1cccc(C(F)(F)F)c1 (stereo unspecified)	55.9%	59.1%	40.31%	31.37%	inactive	–	–	–	–	–	–	–	–	–	–	–	–	Activity (HUVEC [6]): 56.54%
CCCCC(O)Cn1nc(Nc2cccc(C)c2)c(C(=O)OCC)c1N (stereo unspecified)	–	43%	10.57%	–	inactive	110%	114%	112%	121%	107%	98.2%	105%	113%	110.95%	Active	> 70%	Active	–
CCCCC(O)Cn1nc(Nc2ccccc2Cl)c(C(=O)OCC)c1N (stereo unspecified)	–	–	–	–	–	109%	125%	140%	138%	103%	104%	102%	126%	92.72%	Active	> 70%	Active	Activity (HUVEC [6]): 47.74%; Activity (HUVEC [11]): inactive
CCCCC(Cn1nc(Nc2ccccc2Cl)c(C(=O)OCC)c1N)OC(=O)Nc1cccc(C(F)(F)F)c1 (stereo unspecified)	–	–	–	–	inactive	121%	127%	142%	109%	106%	84.3%	110%	133%	92.97%	inactive	> 70%	–	Activity (HFF [12]): <60%
CCOC(=O)c1c(Nc2ccccc2)nn(CC(O)c2ccccc2)c1N (stereo unspecified)	27.3%	–	<40%	<55%	inactive	114%	118%	150%	133%	112%	111%	108%	131%	96.04%	–	> 70%	–	–
CCOC(=O)c1c(Nc2ccc(Cl)cc2)nn(CC(O)c2ccccc2)c1N (stereo unspecified)	27.3%	21%	<40%	<55%	inactive	131%	114%	125%	116%	119%	77.6%	102%	127%	113.67%	–	> 70%	–	–
CCCCC(O)Cn1nc(Nc2ccc(C)cc2)c(C(=O)OCC)c1N (stereo unspecified)	–	43%	–	14.34%	inactive	122%	112%	155%	120%	105%	109%	99%	134%	106.98%	Active	50%	Active	–
CCCCC(O)Cn1nc(Nc2ccc(Cl)cc2)c(C(=O)OCC)c1N (stereo unspecified)	–	–	–	–	inactive	115%	132%	145%	130%	114%	104%	108%	137%	93.96%	inactive	> 70%	Active	inhibition [13]: inactive
CCOC(=O)c1c(Nc2ccccc2)nn(CC(OC(=O)Nc2cccc(C(F)(F)F)c2)c2ccccc2)c1N (stereo unspecified)	–	34.2%	–	–	inactive	115%	120%	124%	82.9%	125%	60.6%	117%	113%	126.08%	–	> 70%	–	Activity (HFF [12]): <60%
CCOC(=O)c1c(Nc2ccc(Cl)cc2)nn(CC(OC(=O)Nc2cccc(C(F)(F)F)c2)c2ccccc2)c1N (stereo unspecified)	–	–	–	–	–	112%	122%	128%	89.2%	124%	65.9%	120%	121%	131.1%	–	> 70%	inactive	Activity (HUVEC [6]): >50%; Activity (HUVEC [14]): >50%
CCOC(=O)c1c(Nc2ccc(C)cc2)nn(CC(O)c2ccccc2)c1N (stereo unspecified)	27.3%	16.2%	<40%	<55%	inactive	128%	117%	119%	118%	112%	80%	102%	117%	105.89%	–	> 70%	–	–
Cc1nc(Nc2ncc(C(=O)Nc3c(C)cccc3Cl)s2)cc(N2CCN(CCO)CC2)n1 [DASATINIB ANHYDROUS]	–	24.1%	–	–	inactive	–	–	–	–	–	–	–	–	–	–	–	–	Activity (HFF [15]): 27.31%; Activity (HFF [16]): 27.32%
